# Data published in ChEMBL document CHEMBL3507680, “University of Dundee, Gates Library screen for HepG2 cell viability”.
# Test: Human HepG2 cell viability assay in 384 well format
# Type: toxicity, cell-based
# Parameters: dose 125 nL, time 70.5 hour; cytotoxicity at 70.5 h: concentration not given beside the values
# Settings: HepG2 cells, read-out: Inhibition
row,Structure (SMILES),cytotoxicity at 70.5 h [%]
1,O=C1N(c2cccc(Cl)c2)Cc2nc(=O)n(Cc3cccc(F)c3)n21,0.196
2,O=C(Cn1nc2c(cc1=O)CCCC2)N[C@@H](Cc1ccccc1)C(=O)O,6.84
3,Cc1n[nH]c2c1C(c1ccc(O)c(Cl)c1)SCC(=O)N2 (configuration not stated),1.38
4,O=C1CC(c2ccncc2)c2c(c(C(=O)O)cn2-c2ccc(F)cc2)N1 (configuration not stated),-6.2
5,CC1=Nc2c(c(=O)[nH]n2C2CCCC2)C(c2cccc(O)c2)S1 (configuration not stated),3.38
6,COc1cccc2c1ccn2CCNC(=O)C(C)C,-6.5
7,O=C(CCc1nc2cccnc2[nH]1)NCc1ccc2c(c1)OCO2,-9.32
8,O=C1CSC(c2cccs2)c2cnn(C3CCCC3)c2N1 (configuration not stated),-5.69
9,Cn1cccc1CNC(=O)CCCc1nnc2ccccn12,-3.22
10,COC(=O)CC(c1cnn(C)c1)c1oc(C)cc(=O)c1O (configuration not stated),7.5
11,CNC(=O)c1cc(S(=O)(=O)C(C)C)cs1,1.49
12,COc1ccc2c(c1)OC1(CCN(Cc3ccc(F)cc3)CC1)CC2=O,1.23
13,CC1(C)OCC(CNC(=O)c2cnn(-c3cc(Cl)ccc3Cl)c2N)O1 (configuration not stated),-5.2
14,CC(=O)N1N=C(c2ccccc2)OC1C(=O)NCCc1cccc(Cl)c1 (configuration not stated),-19.7
15,O=C(c1ccccn1)N1CCN(c2ccc(-c3cccnc3)nn2)CC1,-11.4
16,CC(C)(C)n1cc(C(=O)NCCCn2ccnc2)c2cccnc21,-4.7
17,Cc1ccc(C)c(C(NC(=O)C(C)(C)C)c2cccnc2)c1 (configuration not stated),-4.24
18,Cc1ccc(C)c(NC(=O)Nc2c[nH]c(=O)[nH]c2=O)c1,-27.8
19,O=C(Nc1ccc(F)cc1F)Nc1c[nH]c(=O)[nH]c1=O,-14.5
20,O=C(NCCN1CCOCC1)c1ccc(-n2ccc3ccccc32)s1,-8.71
21,COc1ccc(C2OC(COc3ccccc3Br)=NN2C(C)=O)cc1 (configuration not stated),-6.79
22,COc1ccc2c(c1)CC(NC(=O)NCc1cccs1)CO2 (configuration not stated),-14.1
23,COc1ccc(OC)c(CN2CCCCCC2c2cccs2)c1 (configuration not stated),31.6

row,Structure (SMILES),cytotoxicity at 70.5 h [%]
1,O=C(CSc1nc2c(cnn2CCO)c(=O)[nH]1)N1CCCCCC1,13.2
2,CN1CCc2cc(C(CNS(=O)(=O)c3cccs3)N3CCCC3)ccc21 (configuration not stated),30.7
3,CC(C)c1nn(CC(=O)N2CCCCC2)c(=O)c2c1cnn2C(C)(C)C,-10.1
4,CCCc1cc(=O)[nH]c2nnc(SCC(=O)NCc3ccc(C)cc3)n12,-6.16
5,Cc1cccc(NC(=O)Cn2ncc(SCC(N)=O)c(Cl)c2=O)c1C,-13.7
6,O=C(c1cn(-c2cc(N3CCOCC3)ncn2)cn1)N1CCSCC1,-2
7,O=C(c1cn(-c2cc(N3CCSCC3)ncn2)cn1)N1CCSCC1,-1.64
8,O=S(=O)(NCC1CCN(c2ccccn2)CC1)c1ccccc1F,33.3
9,O=C(NCC1CCN(Cc2ccsc2)CC1)NC1CC1,1.34
10,CN(C)C(CNS(=O)(=O)c1ccc(F)cc1F)c1cccn1C (configuration not stated),-13.1
11,O=C(NCC(Cc1cccc(F)c1)N1CCCC1=O)c1cnccn1 (configuration not stated),0.835
12,CS(=O)(=O)N1CCC(C(=O)N2CCC3(CC2)OCCCO3)CC1,54.6
13,Cc1nc(NCc2nccn2C)cc(C2COCCN2)n1 (configuration not stated),-11.1
14,COc1cc([C@@H]2N[C@H](c3nccs3)Cc3ccsc32)cc(OC)c1OC,-0.55
15,Cc1nc(C(Cc2ccsc2)NC(=O)CN2CCOCC2)sc1C (configuration not stated),-4.95
16,Cc1nc(C(Cc2ccsc2)NC(=O)CCN2CCOCC2)sc1C (configuration not stated),-7.23
17,COCC(=O)N1C[C@@H](c2cc(O)nc(C)n2)[C@H](c2ccccc2F)C1,13
18,Cc1cc2c(=O)n(CC(=O)N3CCn4cccc4C3C(C)C)cnc2s1 (configuration not stated),-6.1
19,CCC1c2ccc(C)n2CCN1C(=O)Cn1cnc2sc(C)cc2c1=O (configuration not stated),-5.17
20,CCC(CN1CCCC1)NC(=O)C1(c2ccc(F)cc2)CC1 (configuration not stated),-7.41
21,O=C(CCN1CCOCC1)NC(Cc1ccsc1)c1nccs1 (configuration not stated),-4.65
22,Cc1cccn2c(NC(C)(C)C)c(C3CCN(C(=O)C4CC4)CC3)nc12,-6.96
23,Cc1csc2c(C3CCN(CCCOc4ccccc4)CC3)nc(C)n12,-0.478

row,Structure (SMILES),cytotoxicity at 70.5 h [%]
1,CC(C)C(=O)NCCc1cc2nc(-c3ccncc3)ccn2n1,-6.71
2,O=C(NCCc1cc2nc(-c3ccncc3)ccn2n1)C1CC1,-6.41
3,CC(C)NC(=O)[C@@H]1CN(C)C[C@]12COc1ccc(F)cc1C2=O,-5.13
4,CN(C)c1cc(C2CCCN2)ccn1 (configuration not stated),0.143
5,Cc1noc(C)c1-c1cccc(C2CN(S(=O)(=O)N(C)C)CCO2)n1 (configuration not stated),-3.96
6,COCCn1c(=O)n(C)c(=O)c2ccc(C3CCN(C(C)=O)CC3)nc21,-1.06
7,Cn1ccnc1C1(O)CCCN(Cc2ccncc2)CC1 (configuration not stated),-2.25
8,Cc1ccccc1C(=O)N1CC[C@H](O)[C@@H](N2CCOCC2)CC1,-4.48
9,O=C(O)CCCN1C[C@@H](c2ccccc2F)[C@@]2(CCCCC(=O)N2)C1,-2.59
10,CCC(O)Cn1nc(-c2ccc(C(=O)O)cc2)cc1-c1cccc(F)c1 (configuration not stated),20.1
11,Clc1ccc(OCCc2cc(C3CCN(c4ncccn4)C3)n[nH]2)cc1 (configuration not stated),0.0716
12,NC(=O)CN1CCCC(c2ccnc(Nc3ncccn3)c2)C1 (configuration not stated),18.8
13,COCCNc1ccc(CC2CCCN(C3CCOCC3)C2)nn1 (configuration not stated),-4.94
14,O=C(c1cccnc1)N1CCc2[nH]nc(Nc3ccccc3)c2C1,-6.1
15,CC(=O)N1CCCC(c2ccnc(Nc3cnccn3)c2)C1 (configuration not stated),-1.19
16,O=C(c1cncs1)N1CCc2[nH]nc(Nc3ccccc3)c2C1,-3.16
17,CC(C)N1CCC(c2cnc(-c3cncnc3)cn2)CC1,21.3
18,Cc1noc(C)c1CC(=O)N1CC[C@@](C)(O)[C@H](Oc2ccccc2)C1,-2.99
19,CC(=O)NCC(=O)N1CCOCC(Cc2ccc3c(ccn3C)c2)C1 (configuration not stated),-8.14
20,CNC(=O)C1(Cc2cc(C(C)C)no2)CCN(Cc2ccccn2)C1 (configuration not stated),-0.0563
21,COc1cc(CCC(=O)N2CCC(c3cncc(C)n3)CC2)on1,-3.99
22,COCC(=O)N1C[C@@H](O)[C@H](N2CCN(c3ccccc3)CC2)C1,-0.565
23,c1ccc(N2CCC(c3ccncc3)CC2)cc1,5.91

row,Structure (SMILES),cytotoxicity at 70.5 h [%]
1,c1cncc(N2CCC(c3ccncc3)CC2)c1,3.31
2,CN(C)C(=O)c1cn[nH]c1C1(C)CCN(c2ncccn2)CC1,2.96
3,CN1CCC(C(=O)N2CCC(c3ccc4c(N)n[nH]c4n3)CC2)CC1,-0.601
4,O=C(Cc1ccccc1)N1CCC(c2nnc(-c3ccccn3)o2)CC1,21.6
5,CC1(C(N)=O)CN(CC2CCOCC2)CCO1 (configuration not stated),53.2
6,Cn1nc(Cl)cc1C(=O)N1CCC(C(=O)c2nc3ccccc3s2)CC1,10.5
7,COc1cccc([C@@]2(O)CC[C@@H]3CN(C(=O)c4cn(C)nc4C)C[C@@H]32)c1,1.27
8,Cc1nc2cc(-c3nccn3C)nn2c(N2CCCC(CO)C2)c1C (configuration not stated),2.86
9,CC(C)N1CCCC1c1csc(N)n1 (configuration not stated),-1.44
10,COc1cc(C(=O)NCC2(N(C)C)CCN(C)CC2)c2ccccc2n1,0.627
11,Cc1ccc(OCCN2CCC(c3nc(C)n4c(C)csc34)CC2)cc1,3.59
12,COc1ccc(CN(C)Cc2ccnc(C3CCCO3)n2)cc1 (configuration not stated),-2.06
13,CN1CCOC(C)(C(=O)Nc2nccs2)C1 (configuration not stated),40.2
14,O=C1N[C@H]2OCCC[C@H]2[C@H](c2ccccc2C(=O)O)N1,13.9
15,Cn1ccnc1CNC(=O)CCc1cccc(F)c1,-9.01
16,CCOc1ccc(CN2CCCC(c3cc4ncccc4[nH]3)C2)cc1 (configuration not stated),6.95
17,Fc1ccc(CN2CCCC(c3cc4ncccc4[nH]3)C2)cc1 (configuration not stated),3.04
18,Cc1c[nH]nc1C1CN(c2cnccn2)CCO1 (configuration not stated),-4.52
19,Cc1cn[nH]c1C1CCCCN1C(=O)CCc1c(C)n[nH]c1C (configuration not stated),-2.55
20,CCc1noc(C)c1C(=O)N1CCC(c2[nH]ncc2S(C)(=O)=O)C1 (configuration not stated),-4.87
21,CN(CCC(=O)N1CCCC(Cc2cccnc2)C1)Cc1cccnc1 (configuration not stated),-6.27
22,Cc1nc(-c2ccc(C(=O)O)cc2)cc(C2CCN(C(C)C)CC2)n1,12.2
23,COc1cccc(CN2CC[C@H]3[C@@H](C2)[C@H](c2ccsc2)CN3C(C)=O)c1,28.6

row,Structure (SMILES),cytotoxicity at 70.5 h [%]
1,Cc1ncc(C(=O)N2CCCC(Cc3nccs3)C2)cn1 (configuration not stated),-8.16
2,Cn1cc(C(=O)N2CCCC(Cc3cnccn3)C2)cn1 (configuration not stated),-15.6
3,CCCn1cc(C(=O)N2CCCC(Cc3nccs3)C2)cn1 (configuration not stated),-4.77
4,CN(C)C(=O)CN1CCCCC1c1nc(N)ncc1-c1cccc(F)c1 (configuration not stated),34.4
5,CCCC(=O)N(C)Cc1nc(N2CCCC2)ncc1-c1ccncc1,-11
6,Cc1ncc2c(n1)C1(CCN(C(=O)C3CC3)CC1)OCC2,-9.75
7,Fc1ccccc1Cn1c(C2CCNCC2)cc2cccnc21,-4.77
8,COc1cccc(Cn2c(C3CCNCC3)cc3cccnc32)c1,-1.55
9,COc1ccccc1C1(NCc2c(C)nc3c(C)cccn23)CCCC1,24.9
10,CN(C)c1ccnc(C2CCCN2)n1 (configuration not stated),-3.83
11,CC(Cn1cncc1-c1cnn(C2CCCCC2)c1)N1CCCCC1 (configuration not stated),25
12,Fc1cccc(F)c1Cn1c(C2CCNCC2)cc2cccnc21,3.7
13,COc1cccc(Nc2nc(C3CCNCC3)c3ccccn23)c1,-2.27
14,COc1cccc(CCC(=O)N2CCC[C@@H](N)[C@@H]2c2ccccc2F)c1,-1.81
15,COc1cccc([C@H]2CN(C(C)=O)[C@@H]3CCN(Cc4ccsc4)C[C@H]23)c1,-4.18
16,CCC(CN1CCCCC1)NC(=O)C1(c2cccc(F)c2)CC1 (configuration not stated),-8.99
17,Cc1ccccc1-n1nc(C)c(CN(C)C(C)Cc2ccccn2)c1C (configuration not stated),0.642
18,COc1ccc(C2(NCc3c(C)nc4c(C)cccn34)CCCC2)cc1,-5.54
19,CCC(CN1CCN(C)CC1)NC(=O)C1(c2cccc(F)c2)CC1 (configuration not stated),-4.87
20,COc1ccc(CCNC(=O)C2CCC(Cn3cnnn3)CC2)cc1 (configuration not stated),-2.47
